Assay results published in patent US20190183890A1, “METHODS AND COMPOSITIONS FOR PROMOTING HAIR GROWTH” (Rophe Pharma, Inc., priority 2016, published 2019).

Legend:
androgenic alopecia [1] = test system: androgenic alopecia
androgenic alopecia [2] = conditions: topical

For Cl.NNc1nncc2ccccc12 [hydralazine, 1-hydrazinophthalazine monohydrochloride], the “men with visible enhancement in hair count and hair thickness” value (androgenic alopecia [1]; 12 men aged 33-69 years, 150, then 300, then 600 mg/100 ml, after 6-8 weeks of treatment) was 11 out of the 12, the “treatment time to visible enhancement in hair count and hair thickness” value (androgenic alopecia [1]; 12 men, 150 to 600 mg/100 ml) was 6-8 weeks and the “onset of effect compared with Rogaine” value (androgenic alopecia [1]; 12 men, visible enhancement after 6-8 weeks) was “much faster onset of effect than Rogaine”. For the same molecule, the hair regrowth (androgenic alopecia [2]; 0.2% solution in glycol, alcohol and water, over 200 patients, mostly androgenic alopecia) was “hair grew back” and the “time until hair growth visible” value (androgenic alopecia [2]; 0.2% solution, treatment has to be continued every month to sustain the hair) was “visible after the first month”.
